Assay results reported in paper PMC10048853 (International Journal of Molecular Sciences, 2023).
Where two headings read alike, the source gives them in different places.

Tests used:
Type in all cases: binding, Tritirachium album limber
proteinase K (PK) [1] = molecular target: T1, proteinase K (PK) (Parengyodontium album, UniProt P06873); experiment: Site-tagged competition experiments with ibuprofen and cytisine; conditions: for Ksv of free PK: no site marker; for Ksv of PK–cytisine complex as % of that of free PK: site marker cytisine; for Ksv of PK–ibuprofen complex as % of that of free PK: site marker ibuprofen
T1 construct: It is a single-chain protein consisting of 279 amino acid residues and has a molecular weight of 28,930 Da; purchased Jiuding Chemicals (Shanghai, China)
T1 sequence (P06873 106-384): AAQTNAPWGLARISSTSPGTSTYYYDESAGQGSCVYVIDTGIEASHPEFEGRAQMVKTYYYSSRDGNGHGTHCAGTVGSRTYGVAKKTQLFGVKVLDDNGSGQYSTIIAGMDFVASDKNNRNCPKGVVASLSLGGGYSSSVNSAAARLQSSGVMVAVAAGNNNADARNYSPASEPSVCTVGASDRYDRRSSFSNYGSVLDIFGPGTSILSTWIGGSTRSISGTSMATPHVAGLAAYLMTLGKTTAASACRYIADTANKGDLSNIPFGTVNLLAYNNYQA
Text: To determine the binding site of PK, two typical ligands including ibuprofen and cytisine were chosen to perform competitive binding experiments. […] The site-labeling experiments were still performed using Equations (1) and (2) for correction and data analysis, respectively. […] It has been well known that neutral compounds such as ibuprofen and cytisine are likely to bind with proteins through hydrophobic interactions and hydrogen binding. […] This is consistent with the results obtained from the thermodynamic calculations.
For in site labeling competition experiments, an agent such as ibuprofen or cytisine of 3.46 μM was first mixed with PK. […] The excitation wavelengths for PK–ibuprofen and PK–cytisine were 265 and 280 nm, respectively. Fluorescence spectra were analyzed using the Stern–Volmer equation.

proteinase K (PK) [2] = molecular target: T1, proteinase K (PK); experiment: Synchronous fluorescence spectroscopy of PK with ligand; conditions: 300 K, ligand increased from 0.0 to 25.0 μM; for maximum emission wavelength of PK, synchronous fluorescence (Figure 6B,D): peak near 274 nm; for maximum emission wavelength of PK, synchronous fluorescence (Figure 6A / 6C): peak near 279 nm
Experimental: Synchronous fluorescence spectroscopy studies were performed to observe changes in the molecular environment of Tyr residues and Trp residues in the host structure, which are mainly responsible for fluorescence emission. Therefore, we used the characteristic information of Tyr and Trp residues, ∆λ = 15 nm and ∆λ = 60 nm, respectively, to probe the changes in the PK-MYR and PK-MYT complexes.
(§1) A Cary Eclipse fluorescence spectrometer (Varian, Palo Alto, CA, USA) was used to determine specific changes in the fluorescence emission of PK at different temperatures. All measurements were recorded at an excitation wavelength of 278 nm and the emission wavelength of 290–450 nm. The excitation and emission slits were adjusted to 5 nm. In synchronous fluorescence measurements, ∆λ was set to 60 and 15 nm.

proteinase K (PK) [3] = molecular target: T1, proteinase K (PK); experiment: Förster resonance energy transfer (FRET) between PK (donor) and ligand (acceptor); conditions: 290 K; PK and ligand 3.46 μM
Text: The distance and energy transfer between two chromophores, commonly known as the donor and the acceptor, may be computed by the Förster resonance energy transfer (FRET) theory. […] The energy transfer efficiency and binding distance were estimated according to Equation (6). (6) E=1−F/F0=RC^6/RC^6+r^6 where E is the energy transfer efficiency between the donor and the acceptor, r is the binding distance between the donor and the acceptor, and RC is the critical distance when the energy transfer efficiency is 50%, the value of which can be calculated using Equation (7). (7) RC^6=8.8×10^−25(K^2⋅Φ⋅n^−4⋅J) where K^2 is the spatial orientation factor associated with the geometry of the dipole donor and acceptor and generally takes the value of 2/3. Φ is the fluorescence quantum yield of the donor. The symbol n is the average refractive index of the medium and usually takes the value of 1.336 as the average value of water and organic matter. J is the spectral overlap integral between the fluorescence emission spectrum of the donor and the absorption spectrum of the acceptor, and the value is calculated by Equation (8). (8) J=∑(FD(λ)⋅ε(λ)⋅λ^4⋅Δλ)/∑(FD(λ)⋅Δλ) where FD(λ) is the corrected fluorescence intensity of the donor in the wavelength range, ε(λ) is the molar absorption constant of the acceptor at the wavelength, and ∆λ is the span of the wavelength. Following the FRET theory, the main factors affecting the energy transfer efficiency include the fluorescence production of the donor, the overlap of the fluorescence emission spectrum of the donor with the UV–Vis absorption spectrum of the acceptor, and the binding distance between the donor and the acceptor that must be within a specified range of 1 to 10 nm.
Förster resonance energy transfer (FRET) was tracked by overlapping PK emission spectrum (donor) with MYR or MYT absorption spectrum (acceptor). A concentration of 3.46 μM PK was chosen for the fluorescence emission spectroscopy measurements.

proteinase K (PK) [4] = molecular target: T1, proteinase K (PK); experiment: Fluorescence quenching of proteinase K by MYR/MYT (Stern–Volmer, double-logarithmic and Van't Hoff analysis); conditions: for Stern–Volmer constant Ksv: 3.46 μM PK, pH 8.0; for fluorescence quenching rate constant Kq: τ0 1 × 10^−8 s; for enthalpy change ∆H: Van't Hoff equation, 290, 300, 310 K; for fluorescence quenching process (mechanism): from Kq versus 2 × 10^10 L·mol^−1·s^−1; for Kd: double logarithmic equation, read-out: binding constant KA (converted)
Text: Fluorescence spectroscopy is an effective method used to investigate conformational changes of proteins and binding parameters of ligands to fluorophore residues of proteins such as Trp, Tyr or Phe. PK contains two Trp residues (Trp8 and Trp212), which make it possible to emit fluorescence. […] The process by which this phenomenon occurs is called fluorescence quenching, which is the result of the altered microenvironment of PK. To eliminate the interference of fluorescence quenching from the inner filter effect, the experiments were corrected for fluorescence intensity using Equation (1). (1) Fcorr=Fobs×e^(Aex+Aem)/2 where Fcorr and Fobs are the fluorescence emission intensity values of the corrected and pre-corrected systems, respectively. Aex and Aem are the UV–Vis absorption intensities of quencher and PK at excitation and emission wavelengths, respectively.
To investigate the differences in the fluorescence quenching patterns of the PK-MYR and PK-MYT complexes, the Stern–Volmer equation (Equation (2)) was used for analysis.
Fluorescence quenching could be categorized into two processes, namely dynamic quenching and static quenching. Dynamic quenching occurs when the quencher collides with biological macromolecules, while static quenching is caused by the formation of complexes. For the dynamic process, the increase in Ksv along with the increase in temperature is expected, and the opposite is seen for the static quenching process. […] Consequently, we know that the combination of PK and MYR/MYT could form PK-MYR and PK-MYT complexes, leading to the static quenching mechanism.
Normally, the maximum collisional quenching constant Kq is about 2 × 10^10 L·mol^−1·s^−1 for small molecule quenchers and biomolecules.
The binding constants and the number of binding sites can be calculated by using a double logarithmic equation [20, 21] (Equation (3)). (3) log[(F0−F)/F]=logKA+nAlog[Q] where KA represents the binding constant between the biomolecule and the quencher, and nA implies the number of binding sites between the quencher and the fluorophor. […] It could be proposed that the binding constant of PK-MYT is larger than that of PK-MYR at the temperature of 290 K, and these two complexes share a similar binding site number n around one.
(4) lnKA=−ΔH/RΤ+ΔS/R (5) ΔG=−RTInKA=ΔH−TΔS where R is the molar gas constant with a general value of 8.314 J·mol^−1·K^−1. ∆H and ∆S are the enthalpy and entropy changes during the fluorescence quenching, respectively. The ∆G in Equation (5) is the Gibbs free energy change in the reaction. In general, the interaction between quenchers and fluorophors can be explained by four forces, including hydrogen bonding, van der Waals forces, electrostatic forces, and hydrophobic interactions. The sign and magnitude of ∆H and ∆S can be used to distinguish the binding forces and properties of the complexes. When ∆H and ∆S are positive, hydrophobic interactions dominate; when both ∆H and ∆S are negative, they can be explained as hydrogen bonding and van der Waals forces; when ∆H and ∆S are very low negative or positive values, there exist electrostatic interactions.
as §1

[5] = site marker cytisine 3.46 μM, room temperature, 1 h
[6] = site marker ibuprofen 3.46 μM, room temperature, 1 h

Row | Compound | Ksv of free PK (proteinase K (PK) [1]) | Ksv of PK–cytisine complex as % of that of free PK (proteinase K (PK) [1]) | Stern–Volmer equation quenching constant KSV (proteinase K (PK) [1]; [5]) | Ksv of PK–ibuprofen complex as % of that of free PK (proteinase K (PK) [1]) | Stern–Volmer equation quenching constant KSV (proteinase K (PK) [1]; [6]) | Stern–Volmer equation quenching constant KSV (proteinase K (PK) [1]; site marker: blank (free PK)) | maximum emission wavelength of PK, synchronous fluorescence (Figure 6B,D) (proteinase K (PK) [2]) | maximum emission wavelength of PK, synchronous fluorescence (Figure 6A / 6C) (proteinase K (PK) [2]) | critical distance RC (proteinase K (PK) [3]) | energy transfer efficiency E (proteinase K (PK) [3]) | Gibbs free energy change ∆G (proteinase K (PK) [4]; T 290 K) | number of binding sites nA (proteinase K (PK) [4]; T 290 K) | Stern–Volmer constant Ksv (proteinase K (PK) [4]; T 290 K) | fluorescence quenching rate constant Kq (proteinase K (PK) [4]; T 290 K) | Gibbs free energy change ∆G (proteinase K (PK) [4]; T 300 K) | number of binding sites nA (proteinase K (PK) [4]; T 300 K) | Stern–Volmer constant Ksv (proteinase K (PK) [4]; T 300 K) | fluorescence quenching rate constant Kq (proteinase K (PK) [4]; T 300 K) | Gibbs free energy change ∆G (proteinase K (PK) [4]; T 310 K) | number of binding sites nA (proteinase K (PK) [4]; T 310 K) | further results
1 | Myricitrin [MYT] | 20600 L/mol | 38.14% | 0.78 10^4 L·mol^−1 | 61.52% | 1.27 10^4 L·mol^−1 | 2.06 10^4 L·mol^−1 | 274.0 to 276.0 nm | 279.0 to 280.0 nm | 3.42 nm | 0.128 | -6.558 kcal/mol | 1.1 | 2.20 10^4 L·mol^−1 | 2.20 10^12 L·mol^−1·s^−1 | -6.018 kcal/mol | 1.0 | 2.06 10^4 L·mol^−1 | 2.06 10^12 L·mol^−1·s^−1 | -5.28 kcal/mol | 0.9 | Stern–Volmer constant Ksv (proteinase K (PK) [4]; T 310 K): 1.88 10^4 L·mol^−1; fluorescence quenching rate constant Kq (proteinase K (PK) [4]; T 310 K): 1.88 10^12 L·mol^−1·s^−1; enthalpy change ∆H (proteinase K (PK) [4]): -25.098 kcal/mol; fluorescence quenching process (mechanism) (proteinase K (PK) [4]): static
2 | O=c1c(O)c(-c2cc(O)c(O)c(O)c2)oc2cc(O)cc(O)c12 [MYR, Myricetin] | 24600 L/mol | 70.73% | 1.74 10^4 L·mol^−1 | 69.51% | 1.71 10^4 L·mol^−1 | 2.46 10^4 L·mol^−1 | no shift | 279.0 nm | 3.61 nm | 0.105 | -6.601 kcal/mol | 1.0 | 3.57 10^4 L·mol^−1 | 3.57 10^12 L·mol^−1·s^−1 | -6.03 kcal/mol | 0.9 | 2.46 10^4 L·mol^−1 | 2.46 10^12 L·mol^−1·s^−1 | -5.442 kcal/mol | 0.9 | binding distance r (proteinase K (PK) [3]): 5.11 nm; Kd (proteinase K (PK) [4]; T 290 K): 16.9 µM; Kd (proteinase K (PK) [4]; T 300 K): 40.5 µM; Stern–Volmer constant Ksv (proteinase K (PK) [4]; T 310 K): 1.90 10^4 L·mol^−1; Kd (proteinase K (PK) [4]; T 310 K): 114 µM; fluorescence quenching rate constant Kq (proteinase K (PK) [4]; T 310 K): 1.90 10^12 L·mol^−1·s^−1; enthalpy change ∆H (proteinase K (PK) [4]): -23.42 kcal/mol; fluorescence quenching process (mechanism) (proteinase K (PK) [4]): static
